# Laboratory results reported in patent publication US8034373B2, “Methods and compositions for reducing oxidative stress in an animal” (Nestec S. A., priority 2004, dated 2011).
# Marks after values point to notes of the source that are not given here.
# What was measured:
# [1] = Plasma Vitamin E in exercising sled dogs
# Experimental: (§1) Three groups of twelve dogs (mixed breed Alaskan sled dogs (husky pointer crosses)) were fed commercially available Pro Plan® Performance chicken and rice formula dog food as a basal diet, and each group was fed either: a placebo consisting of about 0.5 g maltodextrin, about 2 mg astaxanthin, or about 400 mg Vitamin E (alpha-tocopherol). Pro Plan® dog food is available from Nestlé Purina Pet Care Company in St. Louis, Mo. The dogs were trained three times a week on an exercise wheel for a period of six weeks. On the sixth week, the dogs rested for four days and then exercised three days in a row. Blood samples were collected before exercise on day one, immediately after exercise on day three, and at 24 hours and 48 hours after exercise. Plasma from the blood samples was analyzed for concentrations of malondialdehyde, F-2 isoprostanes, Vitamin E, creatine kinase activity as well as oxygen radical absorption capacity (ORAC).
# (§2) All the dogs were maintained on the same basal diet (Purina Pro Plan® Performance chicken and rice formula) for one month prior to the onset and the entire duration of the experiment. Each dog was fed as an individual to maintain an optimal body condition score of 4/10.
# (§3) Thirty-six sled dogs were housed at the Nestle Purina facility in Salcha, Ak. The dogs were divided into three groups of 12 dogs so that each group was alike in age, sex and ability distribution. A treatment was randomly assigned to each group by drawing from a hat. Group “A” was assigned about 400 mg Vitamin E/day, group “B” was assigned about 2 mg Astaxanthin/day and group “C” was assigned about 500 mg maltodextrin as a placebo. The people responsible for feeding, care, and training of the dogs were blind as to the identity of treatments until the completion of the study. Dogs were treated for six weeks before the onset of testing. They were also trained lightly for two sessions per week during this time period. Training sessions consisted of walking at 14 kilometers per hour for 2 hours in a 40-foot diameter circle tethered to a dog-walking wheel.
# (§4) The testing took place over a six day period. On day one, pre-exercise blood samples were drawn from all the dogs. On day two, the dogs ran twelve km while pulling an all terrain vehicle (ATV) weighing 500 pounds. On day three, the dogs walked 16 miles on the dog wheel. On day four, the dogs again pulled the ATV for a distance of 12 kilometers. Immediately after exercise on day four, blood samples were drawn. Additional blood samples were drawn again at 24 hours and 48 hours after exercise. This sampling schedule was designed to examine changes in the parameters measured during exercise and during recovery. Samples were obtained by jugular venipuncture and collected into evacuated glass tubes containing sodium EDTA as an anticoagulant. Once collected they were kept on ice for not more than 10 minutes before they were centrifuged at 10,000 revolutions per minute (RPM) in 4° C. for a period of 10 minutes. The plasma was transferred into freezer vials where the dead space was replaced with gaseous nitrogen to decrease further oxidation during storage. The vials were then capped and immediately quenched in liquid nitrogen. The vials were recovered from liquid nitrogen and stored at −70° C. until analyzed. Each plasma sample was analyzed for malondialdehyde concentration using a standard HPLC, F2-isoprostane concentration utilizing a mass spectrometer and standard ELISA, Vitamin E concentration utilizing a standard HPLC, and Oxidative Radical Absorbance Capacity (ORAC test kit, Oxford Co.
# (§5) F2 isoprostane and CK data was evaluated using a two way ANOVA for repeated measures. Post hoc comparisons were made using a student's t test corrected for repeated measures by the Bonneferroni method. Statistical significance was set at p<0.05. The other data was also evaluated using ANOVA. The abbreviation “se” used with respect to the data in the tables below refers to standard error.
# malondialdehyde = assay: Plasma malondialdehyde (MDA) in exercising sled dogs; type: in vivo, dog
# Experimental: as §1, §2, §3, §4, §5
# F2-isoprostane = assay: Plasma F2-isoprostane (F2I) in exercising sled dogs; type: in vivo, dog; conditions: for Plasma F2I compared to the placebo group: in words
# Experimental: as §1, §2, §3, §4, §5
# total ORAC = assay: Plasma total Oxidative Radical Absorptive Capacity (ORAC) in exercising sled dogs; type: in vivo, dog; conditions: for ORAC improvement by supplementation: any of the time periods measured, in words
# Experimental: as §1, §2, §3, §4, §5
# Creatine Kinase = assay: Plasma creatine kinase (CK) in exercising sled dogs; type: in vivo, dog
# Experimental: as §1, §2, §3
# as §4, with “The plasma was transferred into freezer vials where the dead space was replaced with gaseous nitrogen to decrease further oxidation during storage. The vials were then capped and immediately quenched in liquid nitrogen.” left out
# F2 isoprostane and CK data was evaluated using a two way ANOVA for repeated measures. […] The other data was also evaluated using ANOVA. […]
# [2] = test system: canine lens epithelial cells; assay: UV-stressed canine lens epithelial cells supplemented with astaxanthin; type: cell-based
# Excerpt: An in vitro experiment may be performed using canine lens epithelial cells supplemented with astaxanthin at physiological levels.
# cataract formation = assay: In vivo cataract formation study, slit-lamp test; set-up: species or system dog; conditions: dogs, e.g. two year study; astaxanthin optionally with Vitamin E, lutein, zeaxanthin, zinc
# Excerpt: In a model study, 40 dogs could be chosen and randomly allocated to either the control group or to a treatment group receiving AAFCO recommended levels of antioxidants. The treatment group would receive astaxanthin and may also receive one or more of Vitamin E, lutein, zeaxanthin and zinc.
# [3] = test system: peripheral blood mononuclear cells (PBMCs); assay: In vitro lymphoproliferation of stimulated PBMC; type: cell-based, dog; conditions: astaxanthin added directly to the media during stimulation
# [4] = test system: natural killer (NK) cells; assay: NK cell cytotoxicity of cells from animals fed astaxanthin; type: in vivo, dog; conditions: animals fed a diet containing astaxanthin vs control animals
# Experimental: (§6) To assess the effect of astaxanthin supplementation on immune function, dogs may be fed a diet containing astaxanthin and/or Vitamin E for 16 weeks. The amount of astaxanthin used may be 0, 1, 5, 10, 20, and 40 mg per animal per day. Various assays may be performed to assess immune function.
# In another assay, natural killer (NK) cell cytotoxicity is assessed for NK cells isolated from animals that are fed a diet including astaxanthin supplementation.
# [5] = Delayed-type hypersensitivity skin reactions; type: in vivo, dog; conditions: animals fed a diet containing astaxanthin vs control animals
# Experimental: as §6
# Delayed-type hypersensitivity may also be assessed in animals given a diet supplemented with astaxanthin. In these assays, control animals and animals fed a diet containing astaxanthin are given cutaneous injections of saline, a mitogen or a vaccine of distemper virus. The animals are then assessed to measure the skin reactions to mitogen, virus and control. In animals fed a diet containing astaxanthin, the skin reactions are more robust for virus and mitogen than that found in control animals.
# [6] = Antibody titers against an antigen; type: in vivo, dog; conditions: animals fed a diet containing astaxanthin vs control animals
# Experimental: as §6
# Control animals and animals fed a diet containing astaxanthin may also be assessed for the robustness of the immune response against an antigen. For example, antibody titers against an antigen may be measured for control animals and animals fed a diet containing astaxanthin.
# osteoarthritis = assay: Osteoarthritis diet study: plasma and synovial fluid markers, gait; type: in vivo, dog
# Excerpt: A diet supplemented with astaxanthin may be shown to reduce inflammation and associated pain in osteoarthritis. […] At 12 weeks of treatment, plasma and synovial fluid samples are taken from each animal and assayed for total antioxidant activity, and levels of malionaldehyde, prostaglandin, isoprostanes, MMPs and TIMPs. Additionally, the gait of the dogs may be assessed using standard force plate analyses.
# [7] = cited from earlier work
# [8] = reported; in words; cited from earlier work
# [9] = in words; cited from earlier work
# [10] = Pre-ex, sled dogs, about 2 mg astaxanthin/day or about 400 mg Vitamin E/day for six weeks
smiles,measurement,setting,value
"CC1=C(/C=C/C(C)=C/C=C/C(C)=C/C=C/C=C(C)/C=C/C=C(C)/C=C/C2=C(C)C(=O)[C@@H](O)CC2(C)C)C(C)(C)C[C@H](O)C1=O [ATX, astaxanthin]",Plasma Vitamin E concentration compared between treatment groups,"[1]; dog, in vivo",no significant difference
same,Plasma MDA (mean),"malondialdehyde; 24 hour post, same treatment",0.95
same,Plasma MDA compared between treatment groups,"malondialdehyde; 24 hours post exercise, in words",lower than either the placebo value or the Vitamin E value
same,Change in Plasma MDA from Baseline,malondialdehyde; Pre to 48 hour Post,−0.004
same,Plasma F2 Isoprostane concentration (mean),"F2-isoprostane; 24 hour post, same treatment",90
same,Plasma F2 Isoprostane concentration (mean),"F2-isoprostane; 48 hour post, same treatment",66
same,Plasma F2 Isoprostane concentration (mean),"F2-isoprostane; Post-ex, same treatment",52
same,Plasma F2I compared to the placebo group,F2-isoprostane,lower F2I values immediately post-exercise and at 24 hours post-exercise
same,Plasma total ORAC (mean),"total ORAC; 24 hour post, same treatment",5700
same,Plasma total ORAC (mean),"total ORAC; 48 hour post, same treatment",4800
same,ORAC improvement by supplementation,total ORAC,not improved
same,Plasma CK compared to the Vitamin E group,"Creatine Kinase; all time periods but 24 hours post-exercise, in words",lower CK values than the Vitamin E group
same,free radical formation and lipid peroxidation products,"[2]; canine lens epithelia stressed with UV light, astaxanthin at physiological levels",significantly reduce
same,cell death,[2]; canine lens epithelial cells stressed with UV light,significantly less cell death
same,cataract formation and severity (slit-lamp test),cataract formation,control group has significantly more cataract formation
same,proliferation of PBMC,[3],increases proliferation of cells significantly more
same,NK cytotoxicity,[4],significantly increased
same,skin reactions to virus and mitogen (delayed-type hypersensitivity),[5],more robust
same,antibody titers against an antigen,[6],higher antibody titers
same,gait (force plate analyses),"osteoarthritis; 12 weeks, compared to controls",significant improvement in gait
same,"isoprostanes, total antioxidant activity and MMPs","osteoarthritis; plasma and synovial fluid, 12 weeks, 1, 5, 10, 20, or 40 mg per animal per day",decrease
same,in vitro oxygen radical absorptive capacity relative to Vitamin E,[7],4 times
same,potency in preventing lipid peroxidation and scavenging free radicals,[8],more potent than Vitamin E or Vitamin C
same,solubility (lipid / water compartments of the cell),[9],soluble in both lipid and water compartments of the cell
"Cc1c(C)c2c(c(C)c1O)CC[C@@](C)(CCC[C@H](C)CCC[C@H](C)CCCC(C)C)O2 [Vitamin E, alpha-tocopherol]",Plasma Vitamin E (mean),"[1]; 24 hour post, same treatment",4720
same,Plasma Vitamin E (mean),"[1]; 48 hour post, same treatment",4520
same,Plasma Vitamin E (mean),"[1]; Post-ex, same treatment",3540
same,Plasma Vitamin E (mean),[1]; [10],3370
same,Plasma Vitamin E concentration compared between treatment groups,"[1]; all time periods, in words",greatest
same,Plasma MDA (mean),"malondialdehyde; 24 hour post, same treatment",1.44
same,Plasma MDA (mean),"malondialdehyde; 48 hour post, same treatment",1.44
same,Plasma MDA (mean),"malondialdehyde; Post-ex, same treatment",1.17
same,Change in Plasma MDA from Baseline,malondialdehyde; Pre to 24 hour post,−0.071
same,Change in Plasma MDA from Baseline,malondialdehyde; Pre to 48 hour Post,−0.069
same,Change in Plasma MDA from Baseline,malondialdehyde; Pre to Post,−0.336*
same,Plasma MDA (mean),malondialdehyde; [10],1.51
same,Plasma F2 Isoprostane concentration (mean),"F2-isoprostane; 24 hour post, same treatment",130
same,Plasma F2 Isoprostane concentration (mean),"F2-isoprostane; 48 hour post, same treatment",78
same,Plasma F2 Isoprostane concentration (mean),"F2-isoprostane; Post-ex, same treatment",223
same,Plasma F2 Isoprostane concentration (mean),F2-isoprostane; [10],144
same,Plasma F2I compared to the placebo group,F2-isoprostane,not different from the placebo value except at the 24 hour post-exercise time period where it was lower
same,Plasma total ORAC (mean),"total ORAC; 24 hour post, same treatment",7590
same,Plasma total ORAC (mean),"total ORAC; 48 hour post, same treatment",4840
same,Plasma total ORAC (mean),"total ORAC; Post-ex, same treatment",5850
same,Plasma total ORAC (mean),total ORAC; [10],7480
same,ORAC improvement by supplementation,total ORAC,not improved
same,Plasma Creatine Kinase (mean),"Creatine Kinase; 24 hour post, same treatment",184
same,Plasma Creatine Kinase (mean),"Creatine Kinase; 48 hour post, same treatment",204
same,Plasma Creatine Kinase (mean),"Creatine Kinase; Post-ex, same treatment",208
same,Plasma Creatine Kinase (mean),Creatine Kinase; [10],139
same,solubility (lipid / water compartments of the cell),[9],lipid soluble only
